Consider eight molecules from patent publication US5866087A, “Calixarene derivatives, their preparation process and their use for extracting actinides and lanthanides” (priority 1995, dated 1999).

A short description of assay [1]: liquid-liquid extraction from aqueous nitric solution, distribution coefficient D. Type of assay: physicochemical. As to conditions: for D(distribution coefficient) 152-Eu: pH ≈0, 1 hour contacting. The procedure: In these examples, an evaluation takes place of the effectiveness of the calixarenes of table 1 for extracting plutonium, neptunium and americium, as well as europium (simulating all the trivalent lanthanides) of an aqueous solution containing one of these elements. The composition of the aqueous solution is as follows:
[…] Contacting takes place in a 20 ml polypropylene tube, which undergoes stirring. After 1 hour of contacting, the two phases are allowed to settle and the activity of each phase is counted by liquid scintillation or α and γ spectrometries.
The distribution coefficient D is then determined and this corresponds to the ratio of the activity of actinide in the organic phase to the activity of actinide in the aqueous phase.

Assay [2] can be described thus: supported liquid membrane transport into aqueous reextraction solution. Type of assay: physicochemical. To be noted: for Percentage transported in 6 h. 237 Np / Percentage transported in 6 h. 239 Pu / Percentage transported in 6 h. 241 Am / Percentage of 239Pu transported in 24 h / Percentage transported in 24 h. 237 Np / Percentage transported in 24 h. 241 Am / Percentage transported in 6 h. 152 Eu / Percentage transported in 24 h. 152 Eu: supported liquid membrane, 0.001 or 0.0001M calixarene (CMPO 10^-2 M); for Permeability (cm/h) 237 Np / Permeability (cm/h) 239 Pu / Permeability (cm/h) 241 Am / Permeability (cm/h) 152 Eu: CELGARD 2500 membrane, nitrophenylhexyl ether with 0.001 or 0.0001M calixarene (CMPO 10^-2 M), reextraction 1 mole/l methylene diphosphonic acid. An excerpt:
These examples use the second embodiment of the process according to the invention for extracting europium, neptunium, plutonium and americium from aqueous solutions having the same compositions as those used in examples 7 to 16. These examples use the device shown in the attached drawing.
This device comprises an enclosure 1 subdivided into two compartents 3 and 5 by a supported liquid membrane 7, constituted by a microporous polypropylene membrane marketed under the name CELGARD 2500 and having the following characteristics:
membrane thickness: 0.025 mm.
The pores of this membrane are filled with an organic phase constituted by nitrophenylhexyl ether incorporating 0.001 or 0.0001M of calixarene.
Compartment 3 contains 50 ml of aqueous solution (NaNO3 :4 mole/l, HNO3 : 1mole/l with Eu, Np, Pu, Am); and compartment 5 contains 50ml of an aqueous reextraction solution constituted by an aqueous solution with 1 mole/l of methylene diphosphonic acid.
The two solutions are stirred and the initial activity of the solution of compartment 3 is determined, followed by the activity of the aqueous reextraction solution of compartment 5 by liquid α spectrometry and the operation is continued for one day. From it is deduced the percentage of neptunium, plutonium, americium and europium recovered in the aqueous reextraction solution after 6 and 24 h.
The calixarenes used, the permeability (in cm h^-1) of the membrane to Np and Pu, as well as the %, at the end of 6 and 24 h,of Eu, Am, Np and Pu recovered are given in table 3.

Where [3] appears, read: CMPO 0.01M in nitrophenyl hexyl ether, comparative.
[4] abbreviates: calixarene 0.001M in nitrophenyloctylether, aqueous HNO3, NaNO3 4 mole/l, 1 hour, * = precipitation.
Setting [5] is: calixarene 0.001M in nitrophenyloctylether, aqueous HNO3, NaNO3 4 mole/l.
Setting [6] is: calixarene 0.0001M in nitrophenyloctylether, aqueous HNO3, NaNO3 4 mole/l, 1 hour, * = precipitation.

For `CCCCCCCCP(=O)(CC(=O)N(CC(C)C)CC(C)C)c1ccccc1` (stereo not shown) [CMPO, reference compound], in assay [1] (setting [3]), the “D(distribution coefficient) 237-Np” value is listed as 0.85, the “D(distribution coefficient) 239-Pu” value is recorded as 22 and the “D(distribution coefficient) 241-Am” value was 1.2. Also, in assay [2], the “Percentage transported in 6 h. 237 Np” value was found to be 50%, the “Percentage transported in 6 h. 239 Pu” value is 99%, the “Percentage transported in 6 h. 241 Am” value was 9.8% and the “Percentage of 239Pu transported in 24 h” value is 100%. Moreover, in assay [2], the “Percentage transported in 24 h. 237 Np” value was determined as 68%, the “Percentage transported in 24 h. 241 Am” value was determined as 45%, the “Permeability (cm/h) 237 Np” value came to 0.74 cm/h and the “Permeability (cm/h) 239 Pu” value was 3.44 cm/h. For the same molecule, the “Permeability (cm/h) 241 Am” value in assay [2] is reported as 0.17 cm/h.

In the case of `CCCCCCCCCCCCOc1c2cc(NC(=O)CP(=O)(c3ccccc3)c3ccccc3)cc1Cc1cc(NC(=O)CP(=O)(c3ccccc3)c3ccccc3)cc(c1OCCCCCCCCCCCC)Cc1cc(NC(=O)CP(=O)(c3ccccc3)c3ccccc3)cc(c1OCCCCCCCCCCCC)Cc1cc(NC(=O)CP(=O)(c3ccccc3)c3ccccc3)cc(c1OCCCCCCCCCCCC)C2` [Compound 1, 25, 26, 27, 28 tetradodecyloxy-tetra-5, 11, 17, 23-(diphenylphosphinoxidoacetamido) calix[4]arene], in assay [1] (setting [4]), the “D(distribution coefficient) 237-Np” value is 4, the “D(distribution coefficient) 239-Pu” value is more than 100 and the “D(distribution coefficient) 241-Am” value is more than 100. Also, in assay [2], the “Percentage transported in 6 h. 152 Eu” value is listed as 95%, the “Percentage transported in 6 h. 237 Np” value is 56%, the “Percentage transported in 6 h. 239 Pu” value worked out at 84% and the “Percentage transported in 6 h. 241 Am” value was found to be 97%. In assay [2], the “Percentage of 239Pu transported in 24 h” value is 85%, the “Percentage transported in 24 h. 152 Eu” value is reported as 100%, the “Percentage transported in 24 h. 237 Np” value amounted to 66% and the “Percentage transported in 24 h. 241 Am” value stood at 100%. Further, in assay [2], the “Permeability (cm/h) 152 Eu” value was 2.75 cm/h, the “Permeability (cm/h) 237 Np” value is given as 1.35 cm/h, the “Permeability (cm/h) 239 Pu” value worked out at 3.4 cm/h and the “Permeability (cm/h) 241 Am” value stood at 4.9 cm/h.

Regarding `CCCCCCCCCCOc1c2cc(NC(=O)CP(=O)(c3ccccc3)c3ccccc3)cc1Cc1cc(NC(=O)CP(=O)(c3ccccc3)c3ccccc3)cc(c1OCCCCCCCCCC)Cc1cc(NC(=O)CP(=O)(c3ccccc3)c3ccccc3)cc(c1OCCCCCCCCCC)Cc1cc(NC(=O)CP(=O)(c3ccccc3)c3ccccc3)cc(c1OCCCCCCCCCC)C2` [Compound 2, tetra-O-decyl tetrakis (diphenyl phosphinoxidoacetamido)calix[4]arene], the “D(distribution coefficient) 152-Eu” value in assay [1] (setting [5]) is on record as more than 100. Further, in assay [1] (setting [4]), the “D(distribution coefficient) 237-Np” value is on record as 2, the “D(distribution coefficient) 239-Pu” value was determined as 90 and the “D(distribution coefficient) 241-Am” value is 100. In addition, in assay [2], the “Percentage transported in 6 h. 237 Np” value stood at 73%, the “Percentage transported in 6 h. 239 Pu” value is reported as 82%, the “Percentage transported in 6 h. 241 Am” value was 95.5% and the “Percentage of 239Pu transported in 24 h” value is listed as 83%. Besides, in assay [2], the “Percentage transported in 24 h. 237 Np” value is 80%, the “Percentage transported in 24 h. 241 Am” value came to 100%, the “Permeability (cm/h) 237 Np” value is 3 cm/h and the “Permeability (cm/h) 239 Pu” value is listed as 3.6 cm/h. In addition, in assay [2], the “Permeability (cm/h) 241 Am” value was 5 cm/h.

Regarding `CCCCCCCCCCCCCCOc1c2cc(NC(=O)CP(=O)(c3ccccc3)c3ccccc3)cc1Cc1cc(NC(=O)CP(=O)(c3ccccc3)c3ccccc3)cc(c1OCCCCCCCCCCCCCC)Cc1cc(NC(=O)CP(=O)(c3ccccc3)c3ccccc3)cc(c1OCCCCCCCCCCCCCC)Cc1cc(NC(=O)CP(=O)(c3ccccc3)c3ccccc3)cc(c1OCCCCCCCCCCCCCC)C2` [Compound 3, tetra-O-tetradecyl tetrakis (diphenyl-phosphinoxidoacetamido)calix[4]arene], the “D(distribution coefficient) 152-Eu” value in assay [1] (setting [5]) is more than 100. In addition, in assay [1] (setting [4]), the “D(distribution coefficient) 237-Np” value was 1.8, the “D(distribution coefficient) 239-Pu” value worked out at 90 and the “D(distribution coefficient) 241-Am” value is more than 100. In assay [2], the “Percentage transported in 6 h. 152 Eu” value is reported as 90%, the “Percentage transported in 6 h. 237 Np” value was determined as 54%, the “Percentage transported in 6 h. 239 Pu” value was found to be 84% and the “Percentage transported in 6 h. 241 Am” value stood at 98%. In assay [2], the “Percentage of 239Pu transported in 24 h” value stood at 88%, the “Percentage transported in 24 h. 152 Eu” value came to 98%, the “Percentage transported in 24 h. 237 Np” value worked out at 62% and the “Percentage transported in 24 h. 241 Am” value turned out to be 100%. Also, in assay [2], the “Permeability (cm/h) 152 Eu” value was 2.8 cm/h, the “Permeability (cm/h) 237 Np” value worked out at 1.3 cm/h, the “Permeability (cm/h) 239 Pu” value was 2.95 cm/h and the “Permeability (cm/h) 241 Am” value is 5.3 cm/h.

With `CCCCCCCCCCCCCCCCOc1c2cc(NC(=O)CP(=O)(c3ccccc3)c3ccccc3)cc1Cc1cc(NC(=O)CP(=O)(c3ccccc3)c3ccccc3)cc(c1OCCCCCCCCCCCCCCCC)Cc1cc(NC(=O)CP(=O)(c3ccccc3)c3ccccc3)cc(c1OCCCCCCCCCCCCCCCC)Cc1cc(NC(=O)CP(=O)(c3ccccc3)c3ccccc3)cc(c1OCCCCCCCCCCCCCCCC)C2` [Compound 4, tetra-O-hexadecyl tetrakis(diphenyl-phosphinaxidoacetamido)calix[4]arene], in assay [1] (setting [6]), the “D(distribution coefficient) 237-Np” value is given as 1.1, the “D(distribution coefficient) 239-Pu” value turned out to be 27 and the “D(distribution coefficient) 241-Am” value was 27. Besides, in assay [2], the “Percentage transported in 6 h. 237 Np” value came to 21%, the “Percentage transported in 6 h. 239 Pu” value amounted to 54%, the “Percentage transported in 6 h. 241 Am” value turned out to be 3% and the “Permeability (cm/h) 237 Np” value is on record as 0.46 cm/h. For the same molecule, in assay [2], the “Permeability (cm/h) 239 Pu” value was 1.4 cm/h and the “Permeability (cm/h) 241 Am” value turned out to be 0.08 cm/h.

For `CCCCCCCCCCCCCCCCCCOc1c2cc(NC(=O)CP(=O)(c3ccccc3)c3ccccc3)cc1Cc1cc(NC(=O)CP(=O)(c3ccccc3)c3ccccc3)cc(c1OCCCCCCCCCCCCCCCCCC)Cc1cc(NC(=O)CP(=O)(c3ccccc3)c3ccccc3)cc(c1OCCCCCCCCCCCCCCCCCC)Cc1cc(NC(=O)CP(=O)(c3ccccc3)c3ccccc3)cc(c1OCCCCCCCCCCCCCCCCCC)C2` [Compound 5], in assay [1] (setting [6]), the “D(distribution coefficient) 237-Np” value is listed as 1.5, the “D(distribution coefficient) 239-Pu” value came out at 24 and the “D(distribution coefficient) 241-Am” value came out at 21.

Consider `CCCCCCCCCCOc1c2cc(NC(=O)CP(=O)(c3ccccc3)c3ccccc3)cc1Cc1cc(NC(=O)CP(=O)(c3ccccc3)c3ccccc3)cc(c1OC)Cc1cc(NC(=O)CP(=O)(c3ccccc3)c3ccccc3)cc(c1OCCCCCCCCCC)Cc1cc(NC(=O)CP(=O)(c3ccccc3)c3ccccc3)cc(c1OC)C2` [Compound 6, 25, 27 didecyloxy-26,28-dimethoxy-5,11, 17,23-(diphenylphosphinoxido-acetamido) calix[4]arene], for which, in assay [1] (setting [5]), the “D(distribution coefficient) 152-Eu” value was more than 100. Moreover, in assay [1] (setting [4]), the “D(distribution coefficient) 237-Np” value worked out at 3, the “D(distribution coefficient) 239-Pu” value stood at 130 and the “D(distribution coefficient) 241-Am” value is 240. In addition, in assay [2], the “Percentage transported in 6 h. 237 Np” value amounted to 49.4%, the “Percentage transported in 6 h. 239 Pu” value is recorded as 97.1%, the “Percentage transported in 6 h. 241 Am” value is recorded as 94.2% and the “Percentage of 239Pu transported in 24 h” value is 100%. Besides, in assay [2], the “Percentage transported in 24 h. 237 Np” value was 68.3%, the “Percentage transported in 24 h. 241 Am” value stood at 94.9%, the “Permeability (cm/h) 237 Np” value was 1.6 cm/h and the “Permeability (cm/h) 239 Pu” value is 6.4 cm/h. For the same molecule, the “Permeability (cm/h) 241 Am” value in assay [2] came to 2.9 cm/h.

As for `CCCCCCCCCCCCCCCCCCOc1c2cc(NC(=O)CP(=O)(c3ccccc3)c3ccccc3)cc1Cc1cc(NC(=O)CP(=O)(c3ccccc3)c3ccccc3)cc(c1OC)Cc1cc(NC(=O)CP(=O)(c3ccccc3)c3ccccc3)cc(c1OCCCCCCCCCCCCCCCCCC)Cc1cc(NC(=O)CP(=O)(c3ccccc3)c3ccccc3)cc(c1OC)C2` [Compound 7], the “D(distribution coefficient) 152-Eu” value in assay [1] (setting [5]) is recorded as more than 100. Moreover, in assay [1] (setting [4]), the “D(distribution coefficient) 237-Np” value was 3, the “D(distribution coefficient) 239-Pu” value came to 170 and the “D(distribution coefficient) 241-Am” value is on record as 250. Further, in assay [2], the “Percentage transported in 6 h. 237 Np” value was found to be 42.7%, the “Percentage transported in 6 h. 239 Pu” value is reported as 99.7%, the “Percentage transported in 6 h. 241 Am” value is given as 92.6% and the “Percentage of 239Pu transported in 24 h” value worked out at 100%. Moreover, in assay [2], the “Percentage transported in 24 h. 237 Np” value amounted to 59.4%, the “Percentage transported in 24 h. 241 Am” value was determined as 99.3%, the “Permeability (cm/h) 237 Np” value is listed as 1.3 cm/h and the “Permeability (cm/h) 239 Pu” value worked out at 7 cm/h. Also, the “Permeability (cm/h) 241 Am” value in assay [2] amounted to 3.2 cm/h.
